Assay results: patent EP0241573A1, “Topical agents for inhibiting the melanin generation” (Sansho Seiyaku Co., Ltd., priority 1986, dated 1987)

Assays:
[1] = tested on: B16 cells derived from the mouse melanoma; test: Test on B16 cultured cells derived from mouse melanoma: degree of melanin generation (blackening/whitening) observed by the naked eye; format: cell-based; parameters: key: -: Not whitened at all; +: Slightly whitened; +: Considerably whitened; ++: Whitening clearly descernible; +++: Whitening proceeded to such degree that blackening cannot be observed; settings: culture 5 days at 37°C
Experimental: I. Test on B16 Cultured Cells Derived from Mouse Melanoma (Testing Method)
Aqueous solution of vitamin E was added 30 µg/ml, 20 µg/ml, 10 µg/ml and 2 µg/ml respectively in final concentration to the culture medium for B16 cells derived from the mouse melanoma. After culture period for 5 days at 37°C, the degree of melanin generation (degree of blackening) was observed by the naked eyes.

mashroom tyrosinase = test: Mushroom-derived tyrosinase activity inhibition (absorbance increase at 475 nm); format: biochemical; settings: aqueous solutions 0.1, 0.05 and 0.03 µl/ml; tyrosine substrate, pH 6.8, 37°C, 0-15 minutes
Experimental: Fig. 1 is a figure showing the test results of the tyrosinase activity inhibition by vitamin E solutions on mashroom tyrosinase. In the figure, -▲- stands for the absorbance at 475 nm of an aqueous solution of a concentration of vitamin E of 0.1 µl/ml, -●- for an aqueous solution of concentration of vitamin E of 0.05 µl/ml, -x- for an aqueous solution of a concentration of vitamin E of 0.03 µl/ml and -o- for an aqueous solution containing no vitamin E (control).
a. Test on the Mashroom-derived Tyrosinase Activity Inhibition
Samples were prepared by adding 1.0 ml of aqueous solutions containing vitamin E at concentrations of 0.1 µl/ml, 0.05 µl/ml and 0.03 µl/ml respectively to 1.0 ml of a tyrosine solution (0.3 mg/ml), 0.9 ml of a 0.1 M phosphate buffer (pH 6.8) and 0.1 ml of mashroom tyrosinase (400 U/ml), also a solution containing no vitamin E was prepared as a control, and the increase in absorbance at 475 nm at 37°C for 0-15 minutes was measured.

[2] = target: T1, tyrosinase from a B16 cell homogenate (Mus musculus, UniProt P11344); test: B16 cell-derived tyrosinase activity inhibition (absorbance increase at 475 nm); format: biochemical; settings: aqueous solutions 0.1, 0.05 and 0.03 µl/ml; 10 mM dopa, pH 6.8, 37°C, 0.15 minutes
T1 construct: 0.1 ml of a 11000 G supernatant of a B16 cell homogenate; endogenous in cells; host or cells: B16 mouse melanoma cells (11000 G supernatant of homogenate)
T1 sequence (P11344 19-533): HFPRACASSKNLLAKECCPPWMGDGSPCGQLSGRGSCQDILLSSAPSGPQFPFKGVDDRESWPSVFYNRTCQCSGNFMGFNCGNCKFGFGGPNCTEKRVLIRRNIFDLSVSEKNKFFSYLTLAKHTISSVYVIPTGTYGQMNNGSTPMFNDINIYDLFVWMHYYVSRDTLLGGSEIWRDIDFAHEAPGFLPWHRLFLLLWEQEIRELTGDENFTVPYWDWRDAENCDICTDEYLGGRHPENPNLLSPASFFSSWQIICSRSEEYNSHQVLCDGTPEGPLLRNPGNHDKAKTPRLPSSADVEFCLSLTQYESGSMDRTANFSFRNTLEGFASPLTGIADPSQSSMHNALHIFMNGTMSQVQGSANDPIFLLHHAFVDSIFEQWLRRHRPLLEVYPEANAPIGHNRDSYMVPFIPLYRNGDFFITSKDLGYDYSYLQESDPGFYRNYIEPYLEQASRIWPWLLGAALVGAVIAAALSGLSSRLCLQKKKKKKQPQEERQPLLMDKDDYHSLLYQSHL
Experimental: Fig. 2 is a figure showing the test results of the tyrosinase activity inhibition by vitamin E solutions on tyrosinase from a B16 cell homogenate. In the figure, -▲-, -●- ,-x- and -o- have the same significance as in Fig. 1.
b. Test on the B16 cell-derived tyrosinase Activity Inhibition
Samples were prepared respectively by adding 1.0 ml of aqueous solutions containing vitamin E at concentrations of 0.1 µl/ml, 0.05 µl/ml and 0.03 µl/ml prepared in the production examples described hereinbelow to 0.1 ml of a 11000 G supernatant of a B16 cell homogenate, 1.0 ml of a 10 mM dopa and 0.9 ml of a 0.1 M phosphate buffer (pH 6.8), also a solution containing no vitamin E was prepared as a control, and the increase in absorbance at 475 nm at 37°C for […] was measured.

[3] = according to WHO; cited from earlier work

vitamin E
Degree of Whitening ([1]; 10 µg/ml final concentration): +
Degree of Whitening ([1]; 20 µg/ml final concentration): ++
Degree of Whitening ([1]; 30 µg/ml final concentration): +++
effect to inhibit the mashroom tyrosinase (mashroom tyrosinase): not observed
effect to inhibit the B16 cell tyrosinase [2]: not observed
acute toxicity [3]: no acute toxicity
